In patent US8952222B2, “Herbicide resistant sunflower plants derived from RW-B cultivar” (Anglo Netherlands Grain B.V., priority 2008, dated 2015):

System: sunflower line RW-B
Test: Resistance to different AHAS-inhibitor herbicides, Phytotoxicity Index (FIG. 4)
Format: in vivo
Conditions: concentration of at least 67 grams of active ingredient per hectare
Text: Sunflower lines: The following genetic sunflower lines were used in determining AHAS resistance: two S lines (“B770” and “HA89”), two lines resistant to SUs derived from the population SURES (SuBL and SuRL), two lines resistant to IMIs derived from the population IMISUN (“Rha 426” and “B770imi”) and the line “RW-B”. […] SURES and IMISUN are breeding populations release by the USDA. B770 is a proprietary line from Nidera. B770imi is a proprietary line with B770 background carrying the resistant gene Imr1. RW-B was obtained as described above.
Plants were grown in a greenhouse under natural light conditions supplemented with 400 W halide lamps to provide a 14 h day length. Day/night temperatures were 25 and 20° C., respectively. […] Plants without any symptoms were recorded as “0,” increasing levels of stunting and yellowing with respect to the untreated control plants were recorded as “1” to “4,” increasing levels of leaf abnormalities and leaf necrosis were recorded from “5” to “8,” and dead plants with total necrosis of the apex were recorded as “9.” PI data for each experiment were analyzed by an ANOVA test, means were compared by a LSD test.
Response of sunflower lines (B770, HA89, SuBL, SuRL, Rha426, B770imi and RW-B) to four different families of AHAS inhibiting herbicides. […] The injury was measured using Phytotoxicity Index (PI).

With CCOc1nc(F)cc2nc(S(=O)(=O)Nc3c(Cl)cccc3C(=O)OC)nn12 [cloransulam-methyl] the “resistance of RW-B” value was “resistance”.
